From patent publication US12133486B2, “Methods of propagation of arbuscular mycorrhizal fungi (AMF) and uses thereof” (Terra Microbes, LLC, priority 2021, dated 2024)

Test system: AM fungi (mixed INVAM inoculum)
Assay: Pot study: AM fungal spore production in steamed ML soil/sand with INVAM inoculum, planted or unplanted
Assay type: in vivo
Conditions: for AM Fungal Spores per 100 g soil: 80 ppm treatment P, end of study at 66 days, start 408 spores per 100 g; for increase in spore population from the start of the study: planted with yellow sweet clover; for increase in spore population from the start of the study / increase in spore population at 66 days over the levels at time 0: 66 days vs 408 spores per 100 g at time 0
Excerpt: This Example is an un-replicated study to examine whether PO3^−3 (phosphite) impacts spore production and infection rate of AM fungi. The fungi were a mixed inoculum source from the University of West Virginia (UWV). UWV holds and maintains the International Culture Collection of (Vesicular) Arbuscular Mycorrhizal Fungi (INVAM). The plant used was yellow blossom sweet clover (Melilotus officinalis). All pots were inoculated, but only half were planted. Each Experimental unit was a 20 cm pot. Substrate for the units were a soil, sand, and inoculum mixture.
A known AM fungal inoculum was obtained from The International Culture Collection of (Vesicular) Arbuscular Mycorrhizae (invam.wvu.edu, Director Matt Kasson) maintained at the University of West Virginia in Morgantown, WV, US. A mixed culture of four AM fungal species was ordered. The mixture contained 250 ml of soil inoculum of each species. The total weight the entire mixed sample was 1345 grams and thus a bulk density of the sample of 1.345 g/ml. The material received contained the following species: Claroideoglomus etunicatum., Accession number AZ 201C (initially described by Becker W. N. and Gerdemann J. W., Mycotaxon, 6:29, 1977, as Glomus etunicatum.), spores were orange to red-brown, globose, subglobose; 60-160 μm diameter; mean 129 μm (n=120); Rhizophagus clarus, Accession number AZ 151D (initially described by Schenck, N. Mycologia, 71:182, 1979, as Glomus clarum.), spores are from white to yellow brown with many pale yellow to pale yellow brown, 100 to 260 μm diameter, mean 182 μm (n=120); Rhizophagus intraradices, Accession number AZ 123 (initially described by Schenck, N. Mycologia, 74:78, 1982, as Glomus intraradices), spores were white, pale cream, to yellow, brown, sometimes with a green hint, globose, subglobose, irregular. 40 to 140 μm diameter, mean 93.3 (n=170); and Septoglomus deserticola, Accession number CA 113 (initially described by Trappe J. Bluss and Menge J., 1984, Mycotaxon, 20:123, 1984, as Glomus deserticola), spores are orange-brown to dark red brown, most are reddish brown, globose to subglobose, sometimes irregular, 60 to 140 μm diameter.
The present example was designed as a pot experiment where each pot was a treatment, the treatments being untreated controls, units treated with phosphate, and units treated with phosphite. All pots were a mixture of steamed ML soil, sand, and inoculum. Control units (pots) received no other treatment. Phosphate pots were treated with K2HPO4. Phosphite pots were treated with an equivalent molarity (concentration) of P as K2HPO3.
Half of the pots (a control, phosphate, and phosphite treatments) were planted with yellow sweet clover seed. The other half of the pots (also a control, phosphate, and phosphite treatment) were not planted with any plants.
Phosphate and phosphite were added to the soil materials such that the phosphorus in each would constitute 80 mg per kg of soil (Table 6). This is more than was added to the field experimental plots described in Example 3. However, the results of that experiment (Example 4) did show a response of the AM fungi to phosphite. In Example 4, phosphorous either as phosphate or phosphite, was added at 61.53 ppm. In Example 4, there was no apparent inhibition of infection or spore production by addition of phosphorus. The level of P was raised to 80 mg per kg in this example to accentuate the impact of added P on the AM fungi. Each pot described in Table 6 contained 3.022.5 g of soil material (soil plus sand and inoculum).
The various treatment substrates, i.e., soil, sand, and inoculum, were mixed in batches. The control batch was established and mixed for the control treatments. Likewise, the phosphate and phosphite batches were mixed, respectively, for all phosphate and phosphite treatments. The treatments salts (K2HPO4 and K2HPO3) were added as 400 ml aqueous solution (chemical in distilled water to 400 ml). […]

[1] = YBSC (yellow sweet clover) plants

| Structure (SMILES) | AM Fungal Spores per 100 g soil [1] | AM Fungal Spores per 100 g soil (no plants) | increase in spore population from the start of the study | mature brownish reddish spores (planted, 66 days) | small, immature spores (planted, 66 days) | light colored to white spores (unplanted, 66 days) | mature brownish reddish spores (unplanted, 66 days) | small, immature spores (unplanted, 66 days) | increase in spore population at 66 days over the levels at time 0 (unplanted) |
| --- | --- | --- | --- | --- | --- | --- | --- | --- | --- |
| OP(O)O [PO3, dipotassium phosphite] | 4,598 per 100 g soil | 7,301 per 100 g soil | 1,127% | 3,480 per 100 g soil | 217 per 100 g soil | 1,429 spores per 100 g soil | 4,287 per 100 g soil | 1,585 per 100 g soil | 1,789% |
| O=P([O-])([O-])O.[K+].[K+] [PO4, dipotassium phosphate] | 7,146 per 100 g soil | 5,220 per 100 g soil | 1,751% | 2,827 per 100 g soil | 3,604 per 100 g soil |  | 2,237 per 100 g soil | 2,548 per 100 g soil | 1,279% |
